Results from US20240228482A1, “COMPOUNDS, COMPOSITIONS AND METHODS OF TREATING CANCER” (HOTSPOT THERAPEUTICS, INC., priority 2021, published 2024).

target: T1, CBL-B (Homo sapiens, UniProt Q13191); assay: CBL-B TR-FRET IC50 screening (E1/E2 ubiquitination, Biotin-Ubiquitin, Anti GST-Tb donor / Streptavidin-d2 acceptor); format: biochemical; settings: CBL-B 10 nM final; 11-point titration from 100 uM; binned A-F; read-out: CBL-B TR-FRET activity IC50
T1 construct: GST
T1 sequence (Q13191 whole entry): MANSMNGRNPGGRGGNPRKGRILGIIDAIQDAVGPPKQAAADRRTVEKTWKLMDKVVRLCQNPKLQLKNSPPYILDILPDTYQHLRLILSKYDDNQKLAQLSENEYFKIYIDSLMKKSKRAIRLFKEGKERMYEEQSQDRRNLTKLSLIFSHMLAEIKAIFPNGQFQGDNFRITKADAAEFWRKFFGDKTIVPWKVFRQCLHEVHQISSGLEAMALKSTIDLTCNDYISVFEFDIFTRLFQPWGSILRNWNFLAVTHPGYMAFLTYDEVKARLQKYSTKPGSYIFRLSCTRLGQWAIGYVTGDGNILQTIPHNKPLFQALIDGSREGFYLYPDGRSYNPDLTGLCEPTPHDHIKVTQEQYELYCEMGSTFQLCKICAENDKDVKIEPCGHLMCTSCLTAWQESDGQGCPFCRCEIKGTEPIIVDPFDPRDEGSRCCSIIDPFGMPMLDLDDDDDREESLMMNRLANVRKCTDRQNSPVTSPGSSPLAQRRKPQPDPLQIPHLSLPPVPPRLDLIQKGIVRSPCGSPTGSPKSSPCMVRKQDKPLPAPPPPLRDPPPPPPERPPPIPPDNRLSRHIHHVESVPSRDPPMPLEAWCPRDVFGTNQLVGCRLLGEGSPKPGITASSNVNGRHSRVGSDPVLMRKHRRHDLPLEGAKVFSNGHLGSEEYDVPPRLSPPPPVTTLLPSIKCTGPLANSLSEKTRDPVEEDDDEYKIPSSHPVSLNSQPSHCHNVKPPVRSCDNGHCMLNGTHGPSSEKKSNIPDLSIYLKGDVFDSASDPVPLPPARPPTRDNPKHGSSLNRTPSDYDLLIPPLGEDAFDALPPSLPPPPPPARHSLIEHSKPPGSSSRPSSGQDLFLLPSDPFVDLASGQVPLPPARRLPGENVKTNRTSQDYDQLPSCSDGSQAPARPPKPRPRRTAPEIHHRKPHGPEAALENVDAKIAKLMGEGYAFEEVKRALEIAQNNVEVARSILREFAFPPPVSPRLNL

Row | IC50 [nM] | Structure (SMILES)
1 | > 10000 | Cn1cnnc1C[C@H]1CCc2c1cccc2-n1cc2c(C(F)(F)F)cccn2c1=O (single isomer, unassigned) [Compound 16]
2 | < 100 | C[C@@H](c1cc(C(F)(F)F)c2cn(-c3cccc(C4(Cc5nncn5C)COC4)c3)c(=O)n2c1)N1CC2CC2C1 (single isomer, unassigned) [Compound 32]
3 | < 100 | Cn1cnnc1[C@H](F)C1(c2cccc(-n3cc4c(C(F)(F)F)cc(CN5CCC(F)CC5)cn4c3=O)c2)COC1 (single isomer, unassigned) [Compound 45]
4 | < 100 | C[C@H]1CCCN(Cc2cc(C(F)(F)F)c3cn(-c4cccc([C@]5(c6nncn6C)C[C@@H](C)C5)c4)c(=O)n3c2)C1 (single isomer, unassigned) [Compound 59]
5 | < 100 | C[C@H]1CCCN(Cc2cc(C(F)(F)F)c3cn(-c4cccc([C@]5(c6nncn6C)C[C@@H](C)C5)c4)c(=O)n3c2)C1 (single isomer, unassigned) [Compound 60]
6 | < 100 | Cn1cnnc1CC1(c2cccc(-n3cc4c(Cl)cc(CN5CCC6(CC6)C5)cn4c3=O)c2)COC1 (single isomer, unassigned) [Compound 67]
7 | < 100 | C=C(C)C[C@@H](c1cccc(-n2cc3c(C(F)(F)F)cc(CN4CCC[C@H](C)C4)cn3c2=O)c1)c1nncn1C (single isomer, unassigned) [Compound 68]
8 | 301 to 1000 | Cn1cnnc1CC1(c2cccc(-n3cc4c(C(F)(F)F)cc(CO)cn4c3=O)c2)COC1 (single isomer, unassigned) [Compound 81]
9 | < 100 | CN1CCC(c2cc(C(F)(F)F)c3cn(-c4cccc(C5(Cc6nncn6C)COC5)c4)c(=O)n3c2)CC1 (single isomer, unassigned) [Compound 82]
10 | < 100 | CC(c1cc(C(F)(F)F)c2cn(-c3cccc(C4(Cc5nncn5C(F)F)COC4)c3)c(=O)n2c1)N1CCC(F)CC1 (single isomer, unassigned) [Compound 96]
11 | < 100 | CC(c1cc(C(F)(F)F)c2cn(-c3cccc(C4(Cc5nncn5C(F)F)COC4)c3)c(=O)n2c1)N1CCC(F)CC1 (single isomer, unassigned) [Compound 97]
12 | < 100 | CC1CN(Cc2cc(C(F)(F)F)c3cn(-c4cccc([C@]5(Cc6nncn6C)C[C@@H](C#N)C5)c4)c(=O)n3c2)CCC1(F)F (single isomer, unassigned) [Compound 99]
13 | < 100 | CC1CN(Cc2cc(C(F)(F)F)c3cn(-c4cccc([C@]5(Cc6nncn6C)C[C@@H](C#N)C5)c4)c(=O)n3c2)CCC1(F)F (single isomer, unassigned) [Compound 100]
14 | < 100 | CC(c1cc(C(F)(F)F)c2cn(-c3cccc(C4(Cc5nncn5C)COC4)c3)c(=O)n2c1)N1CCC[C@H](C)C1 (single isomer, unassigned) [Compound 119]
15 | < 100 | CC(c1cc(C(F)(F)F)c2cn(-c3cccc(C4(Cc5nncn5C)COC4)c3)c(=O)n2c1)N1CCC[C@H](C)C1 (single isomer, unassigned) [Compound 120]
16 | 301 to 1000 | C[C@H]1CCCN(Cc2cc(C(F)(F)F)c3cn(-c4cccc([C@@H](c5nncn5C)C5COC5)c4)c(=O)n3c2)C1 (single isomer, unassigned) [Compound 134]
17 | < 100 | [2H]C([2H])([2H])n1cnnc1[C@@H](c1cccc(-n2cc3c(C(F)(F)F)cc(CN4CCC[C@H](C)C4)cn3c2=O)c1)C1CCC1 (single isomer, unassigned) [Compound 135]
18 | 301 to 1000 | [2H]C([2H])([2H])n1cnnc1[C@H](c1cccc(-n2cc3c(C(F)(F)F)cc(CN4CCC[C@H](C)C4)cn3c2=O)c1)C1CCC1 (single isomer, unassigned) [Compound 136]

Row | IC50 [nM] | Structure (SMILES)
19 | < 100 | [2H]C([2H])([2H])n1cnnc1[C@@H](c1cccc(-n2cc3c(C(F)(F)F)cc(CN4CCO[C@H](C)C4)cn3c2=O)c1)C1CCC1 (single isomer, unassigned) [Compound 137]
20 | 1000 to 3000 | [2H]C([2H])([2H])n1cnnc1[C@H](c1cccc(-n2cc3c(C(F)(F)F)cc(CN4CCO[C@H](C)C4)cn3c2=O)c1)C1CCC1 (single isomer, unassigned) [Compound 138]
21 | < 100 | CC1CC(c2cccc(-n3cc4c(C(F)(F)F)cc(Br)cn4c3=O)c2)(c2nncn2C)C1 (single isomer, unassigned) [Compound 150]
22 | 301 to 1000 | CC(C)C[C@H](c1cccc(-n2cc3c(C(F)(F)F)cc(CN4CCC[C@H](C)C4)cn3c2=O)c1)c1nncn1C (single isomer, unassigned) [Compound 151]
23 | > 10000 | CC(C)C[C@@H](c1cccc(-n2cc3c(C(F)(F)F)cc(CN4CCC[C@H](C)C4)cn3c2=O)c1)c1nncn1C (single isomer, unassigned) [Compound 152]
24 | < 100 | CC1CC(c2cccc(-n3cc4c(C(F)(F)F)cc(Br)cn4c3=O)c2)(c2nncn2C)C1 (single isomer, unassigned) [Compound 154]
25 | < 100 | CC(c1cc(C(F)(F)F)c2cn(-c3cccc(C4(Cc5nncn5C)COC4)c3)c(=O)n2c1)N1CCO[C@H](C)C1 (single isomer, unassigned) [Compound 156]
26 | < 100 | CC(c1cc(C(F)(F)F)c2cn(-c3cccc(C4(Cc5nncn5C)COC4)c3)c(=O)n2c1)N1CCO[C@H](C)C1 (single isomer, unassigned) [Compound 157]
27 | < 100 | Cn1cnnc1[C@@H](c1cccc(-n2cc3c(C(F)(F)F)cc(CN4CC[C@H](F)C4)cn3c2=O)c1)C1CCC1 (single isomer, unassigned) [Compound 159]
28 | < 100 | Cn1cnnc1[C@@H](c1cccc(-n2cc3c(C(F)(F)F)cc(CN4CCC(C)(F)CC4)cn3c2=O)c1)C1CCC1 (single isomer, unassigned) [Compound 161]
29 | 1000 to 3000 | Cn1cnnc1[C@H](c1cccc(-n2cc3c(C(F)(F)F)cc(CN4CCC5(CC5)C4)cn3c2=O)c1)C1CCC1 (single isomer, unassigned) [Compound 162]
30 | < 100 | Cn1cnnc1[C@@H](c1cccc(-n2cc3c(C(F)(F)F)cc(CN4CCC5(CC5)C4)cn3c2=O)c1)C1CCC1 (single isomer, unassigned) [Compound 163]
31 | 3000 to 10000 | Cn1cnnc1[C@H](c1cccc(-n2cc3c(C(F)(F)F)cc(CN4CC5(CC5)C4)cn3c2=O)c1)C1CCC1 (single isomer, unassigned) [Compound 164]
32 | < 100 | Cn1cnnc1[C@@H](c1cccc(-n2cc3c(C(F)(F)F)cc(CN4CC5(CC5)C4)cn3c2=O)c1)C1CCC1 (single isomer, unassigned) [Compound 165]
33 | 3000 to 10000 | CC1CN(Cc2cc(C(F)(F)F)c3cn(-c4cccc([C@@H](c5nncn5C)C5CCC5)c4)c(=O)n3c2)CCC1(F)F (single isomer, unassigned) [Compound 169]
34 | 1000 to 3000 | CC1CN(Cc2cc(C(F)(F)F)c3cn(-c4cccc([C@@H](c5nncn5C)C5CCC5)c4)c(=O)n3c2)CCC1(F)F (single isomer, unassigned) [Compound 170]
35 | < 100 | CC1CN(Cc2cc(C(F)(F)F)c3cn(-c4cccc([C@H](c5nncn5C)C5CCC5)c4)c(=O)n3c2)CCC1(F)F (single isomer, unassigned) [Compound 171]
36 | < 100 | CC1CN(Cc2cc(C(F)(F)F)c3cn(-c4cccc([C@H](c5nncn5C)C5CCC5)c4)c(=O)n3c2)CCC1(F)F (single isomer, unassigned) [Compound 172]
